A word on the IC50: it is the concentration that gives 50% inhibition.

α4β7 integrin, sequence (P13612 34-1032): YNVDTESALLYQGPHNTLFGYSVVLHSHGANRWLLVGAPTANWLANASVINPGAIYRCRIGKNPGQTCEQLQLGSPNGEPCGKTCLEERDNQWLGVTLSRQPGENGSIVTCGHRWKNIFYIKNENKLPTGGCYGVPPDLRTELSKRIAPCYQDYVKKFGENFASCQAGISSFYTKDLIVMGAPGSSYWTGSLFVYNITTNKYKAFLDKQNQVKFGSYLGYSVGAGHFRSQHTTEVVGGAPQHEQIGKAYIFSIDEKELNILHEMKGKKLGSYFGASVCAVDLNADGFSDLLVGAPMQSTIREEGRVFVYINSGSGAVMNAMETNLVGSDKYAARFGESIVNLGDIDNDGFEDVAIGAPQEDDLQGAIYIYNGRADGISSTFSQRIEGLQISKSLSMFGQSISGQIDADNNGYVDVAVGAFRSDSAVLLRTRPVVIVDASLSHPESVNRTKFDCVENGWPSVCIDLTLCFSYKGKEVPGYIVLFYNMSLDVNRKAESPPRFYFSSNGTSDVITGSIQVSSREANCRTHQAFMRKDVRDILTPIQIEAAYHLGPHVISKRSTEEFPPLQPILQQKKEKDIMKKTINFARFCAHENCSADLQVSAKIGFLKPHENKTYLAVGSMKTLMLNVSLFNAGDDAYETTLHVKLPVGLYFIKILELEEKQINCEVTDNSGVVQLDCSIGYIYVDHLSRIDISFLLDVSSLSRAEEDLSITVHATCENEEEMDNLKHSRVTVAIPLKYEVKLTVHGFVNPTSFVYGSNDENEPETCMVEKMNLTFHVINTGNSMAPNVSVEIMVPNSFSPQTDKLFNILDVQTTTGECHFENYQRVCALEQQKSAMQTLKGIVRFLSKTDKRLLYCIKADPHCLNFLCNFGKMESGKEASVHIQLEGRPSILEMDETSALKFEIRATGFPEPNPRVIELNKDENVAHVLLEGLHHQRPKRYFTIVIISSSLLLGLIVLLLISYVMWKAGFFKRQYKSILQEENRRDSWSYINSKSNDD
α4β7 integrin, sequence (P26010 20-798): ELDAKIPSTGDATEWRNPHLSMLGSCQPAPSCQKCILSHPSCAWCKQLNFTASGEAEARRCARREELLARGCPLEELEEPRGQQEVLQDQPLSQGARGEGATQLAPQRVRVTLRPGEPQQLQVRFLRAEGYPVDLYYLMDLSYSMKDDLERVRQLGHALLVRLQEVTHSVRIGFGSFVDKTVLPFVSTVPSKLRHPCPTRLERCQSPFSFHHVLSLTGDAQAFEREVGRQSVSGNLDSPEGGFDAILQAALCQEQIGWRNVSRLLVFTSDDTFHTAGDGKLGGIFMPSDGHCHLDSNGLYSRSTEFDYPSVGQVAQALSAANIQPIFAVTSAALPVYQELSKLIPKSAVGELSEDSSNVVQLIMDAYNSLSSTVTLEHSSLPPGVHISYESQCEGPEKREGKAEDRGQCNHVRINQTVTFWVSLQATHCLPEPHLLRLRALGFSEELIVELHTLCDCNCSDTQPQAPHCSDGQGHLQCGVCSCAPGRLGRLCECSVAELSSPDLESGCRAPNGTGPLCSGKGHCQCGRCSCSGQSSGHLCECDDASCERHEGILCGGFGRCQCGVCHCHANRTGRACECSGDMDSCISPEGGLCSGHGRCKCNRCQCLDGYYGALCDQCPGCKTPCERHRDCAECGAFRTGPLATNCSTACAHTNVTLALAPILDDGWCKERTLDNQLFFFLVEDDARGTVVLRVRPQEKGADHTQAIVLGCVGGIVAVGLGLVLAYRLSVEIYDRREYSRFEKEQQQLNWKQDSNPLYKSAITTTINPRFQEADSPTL

For one test, the target named is α4β7 integrin (Homo sapiens (Human), UniProt P13612+P26010). The test is described as follows: Integrin Adhesion Assay: Protocol 4 (MAdCAM-coated plate, RPMI-8866 cells with stable LOF mutation of the ITGB1 gene). Type of test: cell-based. The following applies: Protocol 4; RPMI-8866 cells with LOF mutation of ITGB1, MAdCAM; read-out: Mean IC50 α4β7 KO. The method, then:
Integrin Adhesion Assay Using Genetically Modified Cells Generating Stable Cell Lines with ITGB1 or ITGB7 Knockout (Protocol 4 and Protocol 5)
To obtain subclones of the RPMI-8866 cell line (Sigma-Aldrich, St. Louis, MO) that were individually deficient in either integrin β1 or integrin β 7, CRISPR/Cas9 technology was employed (PMID: 30108345). Specifically, a Neon™ Transfection System System 10 μL Kit and the Neon™ Transfection device (both from ThermoFisher Scientific) were used.
The protocol was performed following the manufacturer instructions, described in https://www.thermofisher.com/document-connect/document-connect.html?url=https % 3A%2F%2F assets.thermofisher.com%2FTFS-Assets%2FLSG%2Fmanuals%2FMAN0017066_TrueCut Cas9_Protein_v2_UG.pdf, which is incorporated by reference herein in its entirety.
RPMI-8866 cells were transferred to a flask the day before transfection, at a confluence of 5×10^5 cells/mL. The cells were washed with PBS and resuspended in buffer R (Neon™ Transfection System, Invitrogen) to 2×10^5 cells/10 uL for each reaction. The TrueCut™ HiFi Cas9 Protein (1250 ng per reaction) was mixed with TrueGuide™ sgRNA (7.5 pmoles each/pool of 3 sequences, table 1) (ThermoFisher Scientific). This mix was combined with the RPMI-8866 cells and electroporated on the Neon system at 1700V/20 ms/1 pulse. Transfected cells were allowed to recover in 500 μL pre-warmed cRMPI media (RPMI-1640 media with 10% FBS, 100 U/ml Penicillin-Streptomycin) at 37° C., 5% CO2 for 24 hours. At that time, an extra 500 μL of pre-warmed cRMPI media was added, and cells were incubated for another 24 hours.
For flow cytometry analysis, 100 μL of the transfected cells were collected and stained with anti-itga4 (Clone: 9F10, PE, BD Pharmingen™), anti-itgb 1 (Clone: (TS2/16), Super Bright 436, eBioscience), anti-itgb7 (Clone: FIB504, Brilliant Violet 650, BD Pharmingen™) and viability dye (LIVE/DEAD™ Fixable Green Dead Cell Stain, Invitrogen™). An Attune NxT Flow Cytometer was used to analyze the CRISPR-transfected cells. The flow cytometry results were analyzed using FlowJo™ v10.8.1 Software (BD Life Sciences). Fluorescence minus one (FMO) controls were used to select appropriate gates for data analysis.
To generate an individual clones of cells deficient in either ITGB7 or ITGB1 by limiting dilution assay, the transfected cells were resuspended at 5 cells/mL and seeded in 384 well plates. Outgrowth of clones was monitored using a microscope, and 24 clones were transferred for expansion. Expression of either integrin was verified by flow cytometry in each of the clones. One clone of each integrin b7 or the integrin b1 knockout was chosen, expanded and aliquots were frozen in vapor phase liquid nitrogen.
Integrin Adhesion Assay: Protocol 4
MAdCAM (R&D Systems, 0.1 ug) was diluted in 50 μL PBS, added to each well of an opaque ELISA plate (Thermo), and incubated overnight at 4° C. Coated plates were washed once with PBS and then blocked with 200 μL of assay buffer (10 mM HEPES, 150 mM NaCl, 1 mM MnCl2, 0.1 mM CaCl2), 1% BSA) for 1 hour at 37° C. and 5% CO2. After incubation, buffer was aspirated from the plates and 50 μL of fresh assay buffer was added. Compounds were added using a compounds dispenser (Tecan), and DMSO concentration was normalized to 1% across each plate. 50 μL of RPMI-8866 cells with a stable loss of function (LOF) mutation of the ITGB1 gene (2×10^6 per mL) were added to each well and the plates were incubated for 1 hour at 37° C. at a CO2 concentration of 5%. After incubation, plates were allowed to cool to RT for 10 minutes before being washed four times in assay buffer by an automated plate washer (BioTek). After washing, 100 μL of a 1:1 mixture of assay buffer and CellTiter GLO 2.0 reagent (Promega) were added to each well. Plates were mixed for 2 minutes at 1000 rpm and then allowed to incubate an additional 10 minutes before reading out luminescence on a Tecan Spark plate reader. […]
`COc1ccc(CN2CCCCC2)cc1-c1cccc2c(C[C@H](NC(=O)C3(C(F)(F)F)CCN(CC(F)F)CC3)C(=O)O)cccc12` [Compound 937]: the IC50 is less than 10 nM. Same read-out and setting: as for `Cc1cccc(F)c1C(=O)N[C@@H](Cc1cccc2c(-c3cc(CN4CCCCC4)ccc3C(F)(F)F)cccc12)C(=O)O` [Compound 689], the figure is 10 to 100 nM; as for `COc1c(CN(C)C)ccc(C)c1-c1cccc2c(C[C@H](NC(=O)c3c(C)cccc3F)C(=O)O)cccc12` [Compound 1010], less than 10 nM; as for `Cc1cc(CN2CCN(C3CC3)CC2)cnc1-c1cccc2c(C[C@H](NC(=O)C3(C(F)(F)F)CCN(CC(F)F)CC3)C(=O)O)cccc12` [Compound 899], less than 10 nM. On the same count and under the same terms, then `O=C(O)[C@H](Cc1cccc2c(-c3ncc(CN4CCCCC4)cc3C(F)(F)F)cccc12)NC(=O)C1(C(F)(F)F)CCN(CC(F)F)CC1` [Compound 897], with less than 10 nM. On the same count and under the same terms, as for `O=C(O)[C@H](Cc1cccc2c(-c3ncc(CN4CCC(F)(F)CC4)c4ccccc34)cccc12)NC(=O)C1(C(F)(F)F)CCN(CC(F)F)CC1` [Compound 906], the figure is less than 10 nM. For the compound `O=C(O)[C@H](Cc1cccc2c(-n3cccc(C(F)(F)F)c3=O)cccc12)NC(=O)C1(C(F)(F)F)CCN(CC(F)(F)F)CC1` [Compound 1055], the IC50 was 100 to 1000 nM. Still for that read-out and setting: then `Cn1c(=O)c(-c2cccc3c(C[C@H](NC(=O)C4(C)C[C@H]5CN(CC(F)(F)F)C[C@H]5C4)C(=O)O)cccc23)c(C(F)(F)F)c2ccccc21` (stereo partly drawn) [Compound 1047], with 100 to 1000 nM. Still for that read-out and setting: as for `C[C@@H]1CN(CCc2cnc(-c3cccc4c(C[C@H](NC(=O)C5(C(F)(F)F)CCN(CC(F)(F)F)CC5)C(=O)O)cccc34)c3ccccc23)C[C@H](C)O1` [Compound 979], the figure is less than 10 nM; as for `Cc1cc(C2CCCN(C)C2)cnc1-c1cccc2c(C[C@H](NC(=O)C3(C(F)(F)F)CCN(CC(F)(F)F)CC3)C(=O)O)cccc12` (stereo partly drawn) [Compound 760], less than 10 nM.

As to `Cc1c(CN2CCCCC2)ccnc1-c1cccc2c(C[C@H](NC(=O)C3(C(F)(F)F)CCN(CC(F)(F)F)CC3)C(=O)O)cccc12` [Compound 747], the IC50 lay in the range of 10 to 100 nM. Still for that read-out and setting: as for `O=C(O)[C@H](Cc1cccc2c(-c3ncc(CN4CC(F)C4)c4ccccc34)cccc12)NC(=O)C1(C(F)(F)F)CCN(CC(F)F)CC1` [Compound 877], the figure is less than 10 nM; as for `O=C(O)[C@H](Cc1cccc2c(-c3nccc4ccc(CCCN5CCC6(CC5)CC6)cc34)cccc12)NC(=O)C1(C(F)(F)F)CCN(CC(F)(F)F)CC1` [Compound 743], less than 10 nM. Same read-out and setting: as for `COc1ccc(CN2CCC(C)(C)CC2)cc1-c1cccc2c(C[C@H](NC(=O)C3(C(F)(F)F)CCN(CC(F)(F)F)CC3)C(=O)O)cccc12` [Compound 941], the figure is less than 10 nM. On the same count and under the same terms, then `COc1c(CN2CCCCC2)ccc(C(F)(F)F)c1-c1cccc2c(C[C@H](NC(=O)c3c(C)cccc3F)C(=O)O)cccc12` [Compound 1022], with 10 to 100 nM.

The test is the same for the next values; noted with them: RPMI-8866 cells with stable LOF mutation of the ITGB1 gene; read-out: Mean IC50 α4β7 KO^a.
With `CC1CC(C)(C(=O)N[C@@H](Cc2cccc3c(-c4c(C(F)(F)F)c5ccccc5n(C)c4=O)cccc23)C(=O)O)CCN1CC(F)(F)F` (stereo partly drawn) [Compound 528], the IC50 is greater than 1000 nM. In the case of `COc1cccc(CN2CCCCC2)c1-c1cccc2c(C[C@H](NC(=O)c3c(F)cccc3C3CC3)C(=O)O)cccc12` [Compound 541], the IC50 was less than 10 nM. For `Cn1c(=O)c(-c2cccc3c(C[C@H](NC(=O)C45CC(NCC(F)(F)F)(C4)C5)C(=O)O)cccc23)c(C(F)(F)F)c2ccccc21` [Compound 446], the IC50 was greater than 1000 nM. The same measure, in the same setting: as for `COc1ccc(CN2CCCC(F)C2)c(OC)c1-c1cccc2c(C[C@H](NC(=O)c3c(C)cc(C45CCOCC4C5)cc3F)C(=O)O)cccc12` (stereo partly drawn) [Compound 663], the figure is less than 10 nM.

Take `COc1ccc(CN2CC3CCC(C2)O3)c(OC)c1-c1cccc2c(C[C@H](NC(=O)c3c(C)cccc3F)C(=O)O)cccc12` [Compound 568]: the IC50 was in the range of 10 to 100 nM. Same read-out and setting: then `CC(C)CC1CC(C)(C(=O)N[C@@H](Cc2cccc3c(-c4c(C(F)(F)F)c5ccccc5n(C)c4=O)cccc23)C(=O)O)CCN1CC(F)(F)F` (stereo partly drawn) [Compound 529], with greater than 1000 nM.

Values taken from US20250313535A1, “ALPHA 4 BETA 7 INTEGRIN MODULATORS AND USES THEREOF” (DICE MOLECULES SV, INC., priority 2022, published 2025).
